# Source: patent US11155517B2, “4-substituted phenylamine derivatives and their use to protect crops by fighting undesired phytopathogenic micoorganisms” (PI INDUSTRIES LTD., priority 2016, dated 2021)
# Key:
# Rhizoctonia solani = Rhizoctonia solani (rice sheath blight/potato black scurf) in vitro test, radial growth on Potato Dextrose Agar; type: cell-based; details: 168 h, 300 ppm, seven days, 25° C., read-out: % control compared to the untreated check (radial growth)
# Fusarium culmorum [1] = experiment: Fusarium culmorum (foot rot of cereals) in vitro test, radial growth on Potato Dextrose Agar; type: cell-based; details: Fusarium culmorum, 168 h, read-out: % control compared to the untreated check (radial growth)
# Botrytis cinerea = Botrytis cinerea (gray mold) in vitro test, radial growth on Potato Dextrose Agar; type: cell-based; details: 168 h, 300 ppm, seven days, 22° C., read-out: % (control) compared to the untreated check (radial growth)
# Botrytis cinera = experiment: Greenhouse Botrytis cinera test in tomato, preventive; type: in vivo; details: 24 h, plants sprayed one day before inoculation, read-out: Efficacy (% control), disease severity vs untreated check
# Septoria lycopersici = Septoria lycopersici (leaf spot of tomato) in vitro test, radial growth on Potato Dextrose Agar; type: cell-based; details: 168 h, seven days, 25° C., read-out: % control compared to the untreated check (radial growth)
# Colletotrichum capsici = Colletotrichum capsici (anthracnose) in vitro test, radial growth on Potato Dextrose Agar; type: cell-based; details: Colletotrichum truncatum, 168 h; 300 ppm; seven days, 25° C.; read-out: % control compared to the untreated check (radial growth)
# Alternaria solani = Alternaria solani (early blight of tomato/potato) in vitro test, radial growth on Potato Dextrose Agar; type: cell-based; details: 168 h, 300 ppm, seven days, 25° C., read-out: % control compared to the untreated check (radial growth)
# Pyricularia oryzae = experiment: microbe, parasite or virus in culture; type: cell-based; details: 168 h, read-out: % control compared to the untreated check (radial growth)
# Fusarium culmorum [2] = experiment: Greenhouse Fusarium culmorum test in wheat, preventive; type: in vivo; details: 24 h, read-out: Efficacy (% control), disease severity vs untreated check
# Experimental: Compounds were dissolved in 2% DMSO/Acetone & then mixed with water to calibrated spray volume of 50 ml. This 50 ml spray solution was poured into the spray bottles for further applications.
# To test the preventive activity of compounds, healthy young wheat plants raised in the greenhouse were sprayed with active compound preparation at the stated application rates inside the spray cabinets using hallowcone nozzles. One day after treatment, the plants were inoculated with spore suspension (2% Malt) containing 2×10^6 Fusarium culmorum inoculum. The inoculated plants were then kept in greenhouse chamber at 24° C. temperature and 80-90% relative humidity for disease expression.
# A visual assessment of compound's performance was carried by rating the disease severity (0-100% scale) on treated plants on 3, 7, 10 and 15 days after application. Efficacy (% control) of the compounds was calculated by comparing the disease rating in the treatment with untreated control. The sprayed plants were also assessed for compound's phytotoxic effects by recording symptoms like necrosis, chlorosis and stunting.
Compound,inhibition of growth at 300 ppm (Rhizoctonia solani) [%],inhibition of growth at 300 ppm (Fusarium culmorum [1]) [%],inhibition of growth at 300 ppm (Botrytis cinerea) [%],pest or weed control at 500 ppm (Botrytis cinera) [%],inhibition of growth at 300 ppm (Septoria lycopersici) [%],inhibition of growth at 300 ppm (Colletotrichum capsici) [%],inhibition of growth at 300 ppm (Alternaria solani) [%],inhibition of growth at 300 ppm (Pyricularia oryzae) [%],pest or weed control at 500 ppm (Fusarium culmorum [2]) [%]
"CCN(C)C=Nc1cc(C)c(Cc2ccc(Cl)c(Cl)c2)cc1C [Compound 5, N′-(4-(3,4-dichlorobenzyl)-2,5-dimethylphenyl)-N-ethyl-N-methylformimidamide]",> 80,75,> 80,70 to 100,> 70,> 80,> 75,> 75,
"CCN(C)C=Nc1cc(C)c(Cc2cccc(C)c2)cc1C [Compound 6, N′-(2,5-dimethyl-4-(3-methylbenzyl)phenyl)-N-ethyl-N-methylformimidamide]",> 80,75,> 80,70 to 100,> 70,> 80,> 75,> 75,
"CCN(C)C=Nc1cc(C)c(Cc2ccc(S(C)(=O)=O)cc2)cc1C [Compound 12, N′-(2,5-dimethyl-4-(4-(methylsulfonyl)benzyl)phenyl)-N-ethyl-N-methylformimidamide]",,,,70 to 100,,,> 75,> 75,70 to 100
"CCN(C)C=Nc1cc(C)c(Cc2cccc(Br)c2)cc1C [Compound 14, N′-(4-(3-bromobenzyl)-2,5-dimethylphenyl)-N-ethyl-N-methylformimidamide]",> 80,75,> 80,70 to 100,> 70,> 80,> 75,> 75,
"CCN(C)C=Nc1cc(C)c(Cc2cccc(F)c2)cc1Cl [Compound 30, N′-(2-chloro-4-(3-fluorobenzyl)-5-methylphenyl)-N-ethyl-N-methylformimidamide]",> 80,75,> 80,,> 70,> 80,> 75,> 75,70 to 100
"CCN(C)C=Nc1cc(C)c(C2(c3ccccc3)SCCS2)cc1C [Compound 33, N′-(2,5-dimethyl-4-(2-phenyl-1,3-dithiolan-2-yl)phenyl)-N-ethyl-N-methylformimidamide]",> 80,,,,> 70,,> 75,> 75,70 to 100
"CCN(C)C=Nc1cc(C)c(Cc2cccc(C)c2)cc1Cl [Compound 43, N′-(2-chloro-5-methyl-4-(3-methylbenzyl)phenyl)-N-ethyl-N-methylformimidamide]",> 80,75,> 80,70 to 100,> 70,> 80,> 75,> 75,
"CCN(C)C=Nc1cc(C)c(Cc2ccc(F)cc2)cc1C [Compound 57, N-ethyl-N′-(4-(4-fluorobenzyl)-2,5-dimethylphenyl)-N-methylformimidamide]",> 80,75,> 80,,> 70,> 80,> 75,> 75,70 to 100
"Cc1cc(N=CN2CCCCC2)c(C)cc1Cc1ccccc1Cl [Compound 59, N-(4-(2-chlorobenzyl)-2,5-dimethylphenyl)-1-(piperidin-1-yl)methanimine]",> 80,75,> 80,70 to 100,> 70,> 80,> 75,> 75,
"CCN(C)C=Nc1cc(C)c(Cc2ccccc2[N+](=O)[O-])cc1Cl [Compound 75, N′-(2-chloro-5-methyl-4-(2-nitrobenzyl)phenyl)-N-ethyl-N-methylformimidamide]",> 80,75,> 80,,,> 80,> 75,> 75,70 to 100
"CCN(C)C=Nc1cc(C)c(Cc2ccc(F)cc2)cc1Cl [Compound 76, N′-(2-chloro-4-(4-fluorobenzyl)-5-methylphenyl)-N-ethyl-N-methylformimidamide]",> 80,75,> 80,,,> 80,> 75,> 75,70 to 100
"CCN(C)C=Nc1cc(C)c(Cc2ccc(SC(F)(F)F)cc2)cc1Cl [Compound 77, N′-(2-chloro-5-methyl-4-(4-((trifluoromethyl)thio)benzyl)phenyl)-N-ethyl-N-methylformimidamide]",> 80,75,> 80,,,,> 75,> 75,70 to 100
"Cc1cc(N=CN(C)C(C)C)c(C)cc1Cc1ccccc1F [Compound 81, N′-(4-(2-fluorobenzyl)-2,5-dimethylphenyl)-N-isopropyl-N-methylformimidamide]",> 80,75,> 80,,> 70,> 80,> 75,> 75,70 to 100
"CCN(C)C=Nc1cc(C)c(Cc2ccc(C)c(C(F)(F)F)c2)cc1C [Compound 104, N′-(2,5-dimethyl-4-(4-methyl-3-(trifluoromethyl)benzyl)phenyl)-N-ethyl-N-methylformimidamide]",> 80,75,> 80,70 to 100,> 70,> 80,> 75,> 75,
"CCN(C)C=Nc1cc(C)c(Cc2ccc(Cl)c(F)c2)cc1C [Compound 105, N′-(4-(4-chloro-3-fluorobenzyl)-2,5-dimethylphenyl)-N-ethyl-N-methylformimidamide]",> 80,75,> 80,70 to 100,> 70,> 80,> 75,> 75,
"CCN(C)C=Nc1cc(C)c(Cc2ccc(Cl)c(C(F)(F)F)c2)cc1Cl [Compound 136, N′-(2-chloro-4-(4-chloro-3-(trifluoromethyl)benzyl)-5-methylphenyl)-N-ethyl-N-methylformimidamide]",> 80,75,> 80,,,> 80,> 75,> 75,70 to 100
"CCN(C)C=Nc1cc(C)c(Cc2cc(F)ccc2C)cc1C [Compound 157, N-ethyl-N′-(4-(5-fluoro-2-methylbenzyl)-2,5-dimethylphenyl)-N-methylformimidamide]",> 80,75,> 80,,> 70,> 80,> 75,> 75,70 to 100
"CCN(C)C=Nc1cc(F)c(Cc2cccc(F)c2)cc1C [Compound 172, N-ethyl-N′-(5-fluoro-4-(3-fluorobenzyl)-2-methylphenyl)-N-methylformimidamide]",> 80,75,> 80,,> 70,> 80,> 75,> 75,70 to 100
